Assays:
[1] = biological target: T1, Cloned human M1 receptor (CHRM1) stably expressed in HEK293 cells (Homo sapiens, UniProt P11229); test: CHRM1 Ca++ Flux Assay (agonist mode, FDSS 7000EX); format: cell-based; details: for M1 FDSS PA: Percent Activity; for EC50: geometric mean if tested more than once
T1 construct: expressed in transfected cells; host or cells: HEK293
T1 sequence (P11229 1-460): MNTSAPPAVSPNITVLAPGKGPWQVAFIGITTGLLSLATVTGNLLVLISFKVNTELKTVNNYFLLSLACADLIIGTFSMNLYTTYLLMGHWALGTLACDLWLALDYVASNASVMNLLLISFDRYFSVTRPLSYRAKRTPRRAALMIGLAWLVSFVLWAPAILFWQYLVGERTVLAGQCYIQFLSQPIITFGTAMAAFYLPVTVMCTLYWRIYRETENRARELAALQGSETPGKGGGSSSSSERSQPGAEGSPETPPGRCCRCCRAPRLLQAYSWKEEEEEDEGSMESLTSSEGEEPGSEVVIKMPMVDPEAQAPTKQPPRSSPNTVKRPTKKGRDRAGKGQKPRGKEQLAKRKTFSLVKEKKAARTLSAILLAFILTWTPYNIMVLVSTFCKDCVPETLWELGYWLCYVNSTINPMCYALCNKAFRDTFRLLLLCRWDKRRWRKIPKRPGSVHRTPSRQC
Procedure: (§1) The above examples were characterized by measuring the intracellular mobilization of Ca++ ions caused by signaling events mediated by the receptor. The Intra-cellular Calcium flux levels were captured by the highly sensitive Ca++ indicator, Calcium Assay Kit (BD Biosciences, Catalog Number 640178). The fluorescent activity from all receptors were monitored by the fluorescent imager, FDSS 7000EX (Hamamatsu) over a span of 3 minutes.
(§2) Cloned human M1 receptor (CHRM1) was stably expressed in HEK293 cells and were grown and maintained in a monolayer culture with DMEM/High Glucose (Life Technologies) supplemented with 10% Fetal Bovine Serum, 1× Pen-Strep, and 0.5 mg/mL Geneticin in a humidified atmosphere (5% CO2) at 37° C. The cultures were grown to 90% confluency in T150 flasks (Corning) and washed with 1×DPBS and lifted with 0.05% Trypsin (Life Technologies). The cells were then spun (1K rpm, 3 minutes) and frozen using Recovery Cell Culture Freezing Media (Gibco Technologies). Cells were stored in liquid nitrogen and thawed a day before the assay.
Prior to the day of the assay, stable HEK293 M1 cells were thawed and plated on 384 well black walled clear bottom TC treated plates (Greiner Cat #781091) at 25K cells/well with DMEM/High Glucose supplemented with 10% FBS (Hyclone) Pen-Strep (Life Technologies) and kept overnight in a humidified atmosphere (5% CO2) at 37° C. The following day, cells were loaded with 20 uL Ca^++ dye (BD Biosciences) using Loading Buffer (HBSS +Ca/+Mg, 20 mM HEPES) and placed back in cell incubator for a minimum of 1 hour. The dye was replaced with 45 μL Assay Buffer (HBSS −Ca/−Mg, 20 mM HEPES) and kept at room temperature prior to running on cell imager. Compounds were prepared in Assay Buffer and 5 uL was added to the cells. The FDSS 7000EX (Hamamatsu) was used to acquire Ca++ traces for 3 minutes from cells treated with 11 point dose in triplicate in order to generate dose response curves in agonist mode. All compounds were serially diluted in DMSO then prepared in Assay Buffer for Ca^++ flux studies. The dose response curves were generated from the average of triplicate wells obtained from each data point and used a non-linear regression of four parameter dose response algorithm. The Percent Activity (PA) was measured to EC100 of Carbachol.

[2] = biological target: T2, human cloned CHRM2 receptor (M2_CHO cells) (Homo sapiens, UniProt P08172); test: CHRM2 Ca++ Flux Assay (agonist mode, FDSS 7000EX); format: cell-based; details: for M2 FDSS PA: Percent Activity measured to EC100 of Carbachol; for EC50: agonist mode, geometric mean if tested more than once, read-out: M2 FDSS EC50
T2 construct: expressed in transfected cells; host or cells: CHO-K1
T2 sequence (P08172 1-466): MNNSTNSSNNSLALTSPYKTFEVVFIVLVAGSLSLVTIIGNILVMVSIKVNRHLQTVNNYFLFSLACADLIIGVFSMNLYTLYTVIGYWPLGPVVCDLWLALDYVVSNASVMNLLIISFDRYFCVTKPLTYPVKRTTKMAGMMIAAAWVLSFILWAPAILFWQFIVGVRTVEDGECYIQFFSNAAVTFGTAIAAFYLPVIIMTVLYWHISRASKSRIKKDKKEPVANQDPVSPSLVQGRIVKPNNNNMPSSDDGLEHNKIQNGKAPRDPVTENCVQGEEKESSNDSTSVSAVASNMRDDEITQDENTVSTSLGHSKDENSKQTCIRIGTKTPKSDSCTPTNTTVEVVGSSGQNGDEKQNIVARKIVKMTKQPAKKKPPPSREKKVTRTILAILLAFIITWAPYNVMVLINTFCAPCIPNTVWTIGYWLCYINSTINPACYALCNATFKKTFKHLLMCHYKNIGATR
Procedure: as §1
as §2, with “CHO-K1 cells stably expressing the” for “Cloned”, “cloned CHRM2” for “M1”, “(M2_CHO cells)” for “(CHRM1) was stably expressed in HEK293 cells and”, “F12/HAM” for “DMEM/High Glucose”, “0.4” for “0.5”, “80-9 0%” for “90%”
Prior to the day of the assay, stable M2 CHO cells were thawed and plated on Greiner 384 well TC treated plate at a density of 12K cells/well and kept overnight in a humidified atmosphere (5% CO2) at 37° C. The following day, the cells were loaded with Ca^++ dye (BD Biosciences) using Loading Buffer (HBSS +Ca/+Mg, 20 mM HEPES, 2.5 mM Probenecid) and placed back in cell incubator for a minimum of 1 hour and maximum of 2 hours. After incubation, the dye was replaced with Assay Buffer (HBSS −Ca/−Mg, 20 mM HEPES, 2.5 mM Probenecid) supplemented with 20 μM ATP (Sigma Aldrich) and kept at room temperature for 60 minutes prior before running on cell imager. The FDSS 7000EX (Hamamatsu) was used to acquire Ca^++ traces from cells in response to compound treatment and the data was used to generate dose response curves in agonist mode. All compounds were serially diluted in DMSO then prepared in Assay Buffer for Ca^++ flux studies. The dose response curves were generated from the average of triplicate wells obtained from each data point and used a non-linear regression of four parameter dose response algorithm. The Percent Activity (PA) was measured to EC100 of Carbachol.

M1 FDSS PA [1] [%] | EC50 [1] [nM] | M2 FDSS PA [2] [%] | EC50 [2] [nM] | Compound
86 | 3 | 0 | – | Cc1nc(COc2ccccc2C2CCN([C@@H]3CCC4(C3)CN(C(=O)C3(F)CC3)C4)CC2)no1 (single isomer, unassigned) [Example 7X, (R)-(1-fluorocyclopropyl)(6-(4-(2-((5-methyl-1,2,4-oxadiazol-3-yl)methoxy)phenyl)piperidin-1-yl)-2-azaspiro[3.4]octan-2-yl)methanone or (S)-(1-fluorocyclopropyl)(6-(4-(2-((5-methyl-1,2,4-oxadiazol-3-yl)methoxy)phenyl)piperidin-1-yl)-2-azaspiro[3.4]octan-2-yl)methanone]
67 | 246 | 0 | – | Cc1nnc(COc2ccccc2C2CCN([C@@H]3CCC4(C3)CN(C(=O)C3(F)CC3)C4)CC2)o1 (single isomer, unassigned) [Example 7Y, (R)-(1-fluorocyclopropyl)(6-(4-(2-((5-methyl-1,3,4-oxadiazol-2-yl)methoxy)phenyl)piperidin-1-yl)-2-azaspiro[3.4]octan-2-yl)methanone or (S)-(1-fluorocyclopropyl)(6-(4-(2-((5-methyl-1,3,4-oxadiazol-2-yl)methoxy)phenyl)piperidin-1-yl)-2-azaspiro[3.4]octan-2-yl)methanone]
77 | 211 | 0 | – | Cc1nc(COc2ccccc2C2CCN([C@@H]3CCC4(C3)CN(C(=O)C3(F)CC3)C4)CC2)no1 (single isomer, unassigned) [Example 7Z, (R)-(1-fluorocyclopropyl)(6-(4-(2-((5-methyl-1,2,4-oxadiazol-3-yl)methoxy)phenyl)piperidin-1-yl)-2-azaspiro[3.4]octan-2-yl)methanone or (S)-(1-fluorocyclopropyl)(6-(4-(2-((5-methyl-1,2,4-oxadiazol-3-yl)methoxy)phenyl)piperidin-1-yl)-2-azaspiro[3.4]octan-2-yl)methanone]
16 | 438 | 0 | – | COc1ccc(Cl)cc1C1CCN([C@H]2CCC3(C2)CN(C(=O)C2(F)CC2)C3)CC1 (single isomer, unassigned) [Example 8A, (S)-(6-(4-(5-chloro-2-methoxyphenyl)piperidin-1-yl)-2-azaspiro[3.4]octan-2-yl)(1-fluorocyclopropyl)methanone or (R)-(6-(4-(5-chloro-2-methoxyphenyl)piperidin-1-yl)-2-azaspiro[3.4]octan-2-yl)(1-fluorocyclopropyl)methanone]
63 | 30 | 0 | – | COc1ccc(Cl)cc1C1CCN([C@H]2CCC3(C2)CN(C(=O)C2(F)CC2)C3)CC1 (single isomer, unassigned) [Example 8B, (S)-(6-(4-(5-chloro-2-methoxyphenyl)piperidin-1-yl)-2-azaspiro[3.4]octan-2-yl)(1-fluorocyclopropyl)methanone or (R)-(6-(4-(5-chloro-2-methoxyphenyl)piperidin-1-yl)-2-azaspiro[3.4]octan-2-yl)(1-fluorocyclopropyl)methanone]
43 | 2650 | 31 | 11800 | O=C(N1CC2(CC[C@@H](N3CCC(c4ccccc4OC(F)(F)F)CC3)C2)C1)C1(F)CC1 (single isomer, unassigned) [Example 9A, (R)-(1-fluorocyclopropyl)(6-(4-(2-(trifluoromethoxy)phenyl)piperidin-1-yl)-2-azaspiro[3.4]octan-2-yl)methanone or (S)-(1-fluorocyclopropyl)(6-(4-(2-(trifluoromethoxy)phenyl)piperidin-1-yl)-2-azaspiro[3.4]octan-2-yl)methanone]
55 | 47 | 0 | – | O=C(N1CC2(CC[C@@H](N3CCC(c4ccccc4OC(F)(F)F)CC3)C2)C1)C1(F)CC1 (single isomer, unassigned) [Example 9B, (R)-(1-fluorocyclopropyl)(6-(4-(2-(trifluoromethoxy)phenyl)piperidin-1-yl)-2-azaspiro[3.4]octan-2-yl)methanone or (S)-(1-fluorocyclopropyl)(6-(4-(2-(trifluoromethoxy)phenyl)piperidin-1-yl)-2-azaspiro[3.4]octan-2-yl)methanone]
27 | 48 | 0 | – | O=C(N1CC2(CC[C@@H](N3CCC(c4cc(F)ccc4OC4CCOCC4)CC3)C2)C1)C1(F)CC1 (single isomer, unassigned) [Example 9C, (R)-(6-(4-(5-fluoro-2-((tetrahydro-2H-pyran-4-yl)oxy)phenyl)piperidin-1-yl)-2-azaspiro[3.4]octan-2-yl)(1-fluorocyclopropyl)methanone or (S)-(6-(4-(5-fluoro-2-((tetrahydro-2H-pyran-4-yl)oxy)phenyl)piperidin-1-yl)-2-azaspiro[3.4]octan-2-yl)(1-fluorocyclopropyl)methanone]
23 | 1770 | 0 | < 26000 | O=C(N1CC2(CC[C@@H](N3CCC(c4cc(F)ccc4OC4CCOCC4)CC3)C2)C1)C1(F)CC1 (single isomer, unassigned) [Example 9D, (R)-(6-(4-(5-fluoro-2-((tetrahydro-2H-pyran-4-yl)oxy)phenyl)piperidin-1-yl)-2-azaspiro[3.4]octan-2-yl)(1-fluorocyclopropyl)methanone or (S)-(6-(4-(5-fluoro-2-((tetrahydro-2H-pyran-4-yl)oxy)phenyl)piperidin-1-yl)-2-azaspiro[3.4]octan-2-yl)(1-fluorocyclopropyl)methanone]

Source: patent US12122761B2, “2-azaspiro[3.4]octane derivatives as M4 agonists” (NOVARTIS AG, priority 2019, dated 2024)
